The nature of data set [1]: NMR relaxivity from slope of 1/T1 or 1/T2 versus concentration. In kind it is physicochemical. To be noted: for r1 / r2: D2O and dilute acetic acid, 500 MHz. How it is done: Fresh samples for NMR measurements were prepared immediately prior to use. Both the cluster and cluster coated beads were dissolved in distilled water, and filtered via syringe filter. T1 measurements were measured using the inversion recovery pulse sequence, in a field of 300 MHz or 500 MHz, at room temperature with a least squares fit to 10 data points. The T2 was obtained using a conventional spin echo sequence on a 300 MHz spectrometer and using Carr-Purcell-Meiboom-Gill (CPMG) sequence on 500 MHz Bruker spectrometer. Relaxivity was determined from the slope of a plot of 1/T1 or 1/T2 versus concentration of Mn-12 and Mn-12 coated beads. The cluster concentration was determined by atomic absorption of Mn.

A short description of data set [2]: Solubility and stability of Mn-12 in water and aqueous acetic acid. Type of data set: physicochemical. The source says:
Based on simple criteria, Mn-12 appears ideal as a contrast agent.

The conditions of data set [3]: tissues outside of liver and kidney; cited from earlier work.
Setting [4] is: RT, per mM cluster, listed as Mn-12.

Turning to “[Mn12O12(O2CCH3)16 (H2O)4] [Mn12O12Ac16]”, in data set [1] (37° C. versus room temperature), the “temperature dependence of relaxivity” value is reported as “decreased at higher temperatures”. For the same compound, the r1 came to 2.7 ± 0.1 mM⁻¹ s⁻¹ in data set [1] (37° C.); 3.0 ± 0.1 mM⁻¹ s⁻¹ in data set [1] (RT, per mM cluster); 3.0 ± 0.1 mM⁻¹ s⁻¹ in data set [1] (setting [4]). The r2 in data set [1] (37° C.) worked out at 34 ± 1 mM⁻¹ s⁻¹; in data set [1] (RT, per mM cluster), 48 ± 1 mM⁻¹ s⁻¹; in data set [1] (setting [4]), 48 ± 1 mM⁻¹ s⁻¹. Also, the “field dependence of relaxivity” value in data set [1] (measurements at 300, 400, and 500 MHz) is reported as “increase with higher fields”. For the same compound, the “stability in presence of excess carboxylic acid” value in data set [2] (aqueous acetic acid solutions, re-isolated after many hours) is “stable in aqueous acetic acid solutions”. In addition, the “behaviour upon dissolution in distilled water” value in data set [2] (distilled water) was “within minutes a flocculent material forms”.
For `Cc1[nH+]cc(COP(=O)([O-])[O-])c(CN(CCN(CC(=O)[O-])Cc2c(COP(=O)([O-])O)c[nH+]c(C)c2O)CC(=O)[O-])c1O.[Mn].[Na+].[Na+].[Na+]` [Mn-DPDP, manganese dipyrodoxaldiphosphate], in data set [3], the “effect on T1 and T2 in tissues” value is “only limited effect on T1 and T2”.

The values above are taken from patent publication US10342881B2, “Manganese-oxo clusters as contrast agents for magnetic resonance imaging” (Georgetown University, priority 2008, dated 2019).
